# Measurements: patent US10449208B2, “Antiviral prodrugs of tenofovir” (Merck Sharp & Dohme Corp., priority 2016, dated 2019)
# Like-named read-outs stand apart in the source and are kept apart here.
# Key:
# HIV-1 (H9/IIIB strain) = experiment: Multiple round HIV-1 infection assay (Viking assay) in MT4-GFP cells; assay type: cell-based; settings: MT4-GFP cells infected with HIV-1 H9/IIIB, inhibition of reproductive ratio R0
# Protocol: Assessing Antiviral Potency in a Multiple Round HIV-1 Infection Assay (Viking Assay)
# The antiviral activity of the tenofovir prodrugs of the Examples herein was assessed in an assay that measures the rate of replication of HIV in cell culture, termed the Viking assay (Viral KINetics in Green cells) and performed as follows. HIV-1 replication was monitored using MT4-gag-GFP clone D3 (hereafter designated MT4-GFP), which are MT-4 cells modified to harbor a GFP reporter gene, the expression of which is dependent on the HIV-1 expressed proteins tat and rev. Productive infection of an MT4-GFP cell with HIV-1 results in GFP expression approximately 24 h post-infection. MT4-GFP cells were maintained at 37° C./5% CO2/90% relative humidity in RPMI 1640 supplemented with 10% fetal bovine serum, 100 μ/ml penicillin/streptomycin, and 400 μg/ml G418 to maintain the reporter gene. For infections, MT4-GFP cells were placed in the same medium lacking G418 and infected overnight with HIV-1 (H9/IIIB strain) virus at an approximate multiplicity of infection of 0.01 in the same incubation conditions. Cells were then washed and re-suspended in either RPMI 1640 supplemented with 10% or 50% normal human serum (NFIS) at 1.6×10^5 cells/mL (10% NHS or 50% NHS, respectively). Compound plates were prepared by dispensing compounds dissolved in DMSO into wells of 384 well poly-D -lysine-coated plates (0.2 μl/well) using an ECHO acoustic dispenser. Each compound was tested in a 10-point serial 3-fold dilution (typical final concentrations: 8.4 μM-0.42 nM). Controls included no inhibitor (DMSO only) and a combination of three antiviral agents (efavirenz, indinavir, an in-house integrase strand transfer inhibitor at final concentrations of 4 μM each). Cells were added (50 μL/well) to compound plates and the infected cells were maintained at 37° C./5% CO2/90% relative humidity.
# infected cells were quantified at two time points, ˜48 h and ˜72 h post -infection, by counting the number of green cells in each well using an Acumen eX3 scanner. The increase in the number of green cells over ˜24 h period gives the reproductive ratio, R0, which is typically 5-15 and has been shown experimentally to be in logarithmic phase (data not shown). Inhibition of R0 is calculated for each well, and IC50s determined by non-linear 4-parameter curve fitting.
# [1] = Prodrug stability assay in bio-relevant media (FaSSIF with Pancreatin, simulated gastrointestinal tract conditions); assay type: in vitro ADME; settings: % parent prodrug remaining at 5 h vs 0 h, 37° C., 0.5 mg/mL Pancreatin in FaSSIF, HPLC area ratio
# Protocol: Prodrug Stability Assay in Bio-Relevant Media
# The following assay was employed to evaluate the stability of the prodrugs in simulated gastrointestinal tract conditions. Preparation of fasted state simulated intestinal fluid (FaSSIF) using Phares SIF Powder was carried out according to protocols from Phare Drug Delivery AG (Baselland, Switzerland). For sample preparation, 10 μL stock solutions (10 mM) of prodrug substance in DMSO was added to 990 μL of 0.5 mg/mL Pancreatin solution (Fisher CAS#8049-47-6) in FaSSIF. Two samples were prepared for each compound at initial. If the sample was clear solution at the beginning, ran one sample directly as initial by HPLC; if the sample was not clear at starting, diluted the sample by 100% ACN. Put the other sample under 37° C. and observed the sample at 5 h time-point. At 5 h time point, if the sample was clear solution then performed HPLC analysis directly; if it was not clear solution, diluted the sample by 100% ACN and assayed by HPLC. All the samples were vortexed for 3 min and observed before injection. For the diluted samples, the area will be multiplied by a factor when data analysis. The analysis was carried out with an Agilent 1100 series HPLC with autosampler. The column was usually a Poroshell 120 EC -C18, 4.6×50 mm, 2.7 μm. The flow rate was 1.8 mL/min, and the injection volume was 5 or 10 μL. UV detection was in the range 210-400 nm. The mobile phase consisted of solvent A (water plus 10 mM tetrabutylammonium bromide) and solvent B (acetonitrile) with a gradient of 90% solvent A at 0 min changing to 95% solvent B over 6 min, maintained for 1.5 min, then reverting to 90% solvent A over 1.6 min. The area of the parent in prodrug at 5h time point was divided by the area of the parent in prodrug at 0 h time point, to generate the % claimed parent ratio, which are summarized in Table 2 for GI Tract stability.
# [2] = 10% normal human serum, read-out: Viking, IC50 (10% NHS)
# [3] = 50% normal human serum, read-out: Viking, IC50 (50% NHS)
# [4] = Human immunodeficiency virus 1, IIIB, 10% normal human serum, read-out: Viking, IC50 (10% NHS)
# [5] = Human immunodeficiency virus 1, IIIB, 50% normal human serum, read-out: Viking, IC50 (50% NHS)
Compound,IC50 (HIV-1 (H9/IIIB strain); [2]),IC50 (HIV-1 (H9/IIIB strain); [3]),GI Tract stability [1],IC50 (HIV-1 (H9/IIIB strain); [4]),IC50 (HIV-1 (H9/IIIB strain); [5])
"CCCCCOC(=O)C(C)(C)NP(=O)(CO[C@H](C)Cn1cnc2c(N)ncnc21)OCC(=O)OC(C)C (single isomer, unassigned) [Example 4B]",0.0194 µM,0.158 µM,98.87%,,
"CC(C)OC(=O)[C@H](C)OP(=O)(CO[C@H](C)Cn1cnc2c(N)ncnc21)NC(C)(C)C(=O)OC1CCCC1 (single isomer, unassigned) [Example 18B]",0.00269 µM,0.00877 µM,91.31%,,
"CC(C)OC(=O)[C@H](C)OP(=O)(CO[C@H](C)Cn1cnc2c(N)ncnc21)NC(C)(C)C(=O)OC(C)C (single isomer, unassigned) [Example 1B]",0.00743 µM,0.0121 µM,99.82%,,
"CCCCCOC(=O)C(C)(C)NP(=O)(CO[C@H](C)Cn1cnc2c(N)ncnc21)O[C@@H](C)C(=O)OC(C)C (single isomer, unassigned) [Example 2A]",0.00405 µM,0.0221 µM,61.61%,,
"CC(C)OC(=O)C(C)(C)NP(=O)(CO[C@H](C)Cn1cnc2c(N)ncnc21)O[C@@H](C)C(=O)OC1CCCC1 (single isomer, unassigned) [Example 13A]",,,70.30%,0.00617 µM,0.0511 µM
"CCCCOC(=O)C(C)(C)NP(=O)(CO[C@H](C)Cn1cnc2c(N)ncnc21)O[C@H](C)C(=O)OC(C)C (stereo partly drawn) [Example 26, Butyl 2-((((((R)-1-(6-amino-9H-purin-9-yl)propan-2-yl)oxy)methyl)(((R)-1-isopropoxy-1-oxopropan-2-yl)oxy)phosphoryl)amino)-2-methylpropanoate]",,,9.01%,0.0031 µM,0.00874 µM
"CCCCCCOC(=O)C(C)(C)NP(=O)(CO[C@H](C)Cn1cnc2c(N)ncnc21)O[C@@H](Cc1ccccc1)C(=O)OC(C)C (stereo partly drawn) [Example 33, Hexyl 2-((((((R)-1-(6-amino-9H-purin-9-yl)propan-2-yl)oxy)methyl)(((S)-1-isopropoxy-1-oxo-3-phenylpropan-2-yl)oxy)phosphoryl)amino)-2-methylpropanoate]",,,26.96%,0.00169 µM,0.00506 µM
"CC(C)OC(=O)[C@H](C)OP(=O)(CO[C@H](C)Cn1cnc2c(N)ncnc21)NC(C)(C)C(=O)OC(C)C (single isomer, unassigned) [Example 1A]",,0.0611 µM,85.74%,0.0147 µM,
"CCCCCCOC(=O)C(C)(C)NP(=O)(CO[C@H](C)Cn1cnc2c(N)ncnc21)O[C@@H](C)C(=O)OC(C)C (single isomer, unassigned) [Example 7B]",0.00037 µM,0.00101 µM,76.64%,,
"CCCCCOC(=O)C(C)(C)NP(=O)(CO[C@H](C)Cn1cnc2c(N)ncnc21)O[C@@H](C)C(=O)OC(C)C (single isomer, unassigned) [Example 2B]",0.0182 µM,0.0709 µM,91.95%,,
"CC(C)OC(=O)[C@H](C)OP(=O)(CO[C@H](C)Cn1cnc2c(N)ncnc21)NC(C)(C)C(=O)OC1CCCCC1 (single isomer, unassigned) [Example 12A]",,,98.95%,0.00571 µM,0.0252 µM
"CCCCCOC(=O)C(C)(C)NP(=O)(CO[C@H](C)Cn1cnc2c(N)ncnc21)OCC(=O)OC(C)C (single isomer, unassigned) [Example 4A]",,,99.07%,0.0139 µM,0.0866 µM
"CC(C)OC(=O)COP(=O)(CO[C@H](C)Cn1cnc2c(N)ncnc21)NC1(C(=O)OC(C)C)CCCCC1 (stereo partly drawn) [Example 51, Isopropyl 1-((((((R)-1-(6-amino-9H-purin-9-yl)propan-2-yl)oxy)methyl)(2-isopropoxy-2-oxoethoxy)phosphoryl)amino) cyclohexane-1-carboxylate]",,,99.70%,0.0098 µM,0.0249 µM
"CC(C)COC(=O)C(C)(C)NP(=O)(CO[C@H](C)Cn1cnc2c(N)ncnc21)O[C@@H](C)C(=O)OC(C)C (stereo partly drawn) [Example 31, Isobutyl 2-((((((R)-1-(6-amino-9H-purin-9-yl)propan-2-yl)oxy)methyl)(((S)-1-isopropoxy-1-oxopropan-2-yl)oxy)phosphoryl)amino)-2-methylpropanoate]",,,85.48%,0.00239 µM,0.00757 µM
"CC(C)OC(=O)COP(=O)(CO[C@H](C)Cn1cnc2c(N)ncnc21)NC(C)(C)C(=O)OCc1ccccc1 (mixture of isomers) [Example 42, Benzyl 2-((((((R)-1-(6-amino-9H-purin-9-yl)propan-2-yl)oxy)methyl)(2-isopropoxy-2-oxoethoxy)phosphoryl)amino)-2-methylpropanoate]",,,73.54%,0.005 µM,0.0218 µM
"CCCCCCOC(=O)C(C)(C)NP(=O)(CO[C@H](C)Cn1cnc2c(N)ncnc21)OCC(=O)OC(C)C (single isomer, unassigned) [Example 6A]",,,95.97%,0.00314 µM,0.0152 µM
"CCCCCOC(=O)COP(=O)(CO[C@H](C)Cn1cnc2c(N)ncnc21)NC(C)(C)C(=O)OC(C)C (single isomer, unassigned) [Example 8A]",0.00676 µM,0.027 µM,94.11%,,
"CCCCCOC(=O)COP(=O)(CO[C@H](C)Cn1cnc2c(N)ncnc21)NC(C)(C)C(=O)OC(C)C (single isomer, unassigned) [Example 8B]",0.0227 µM,0.161 µM,71.6%,,
"CCCCCCOC(=O)C(C)(C)NP(=O)(CO[C@H](C)Cn1cnc2c(N)ncnc21)O[C@@H](C)C(=O)OCC (stereo partly drawn) [Example 43, Hexyl 2-((((((R)-1-(6-amino-9H-purin-9-yl)propan-2-yl)oxy)methyl)(((S)-1-ethoxy-1-oxopropan-2-yl)oxy)phosphoryl)amino)-2-methylpropanoate]",,,,0.00615 µM,0.0204 µM
"CC(C)OC(=O)COP(=O)(CO[C@H](C)Cn1cnc2c(N)ncnc21)NC(C)(C)C(=O)OC1CCCC1 (single isomer, unassigned) [Example 14A]",,,,0.01 µM,0.0235 µM
"CCOC(=O)C(C)(C)NP(=O)(CO[C@H](C)Cn1cnc2c(N)ncnc21)OCC(=O)OC(C)C (stereo partly drawn) [Example 27, Ethyl 2-((((((R)-1-(6-amino-9H-purin-9-yl)propan-2-yl)oxy)methyl)(2-isopropoxy-2-oxoethoxy)phosphoryl)amino)-2-methylpropanoate]",,,,0.0101 µM,0.0133 µM
"CC(C)OC(=O)[C@H](C)OP(=O)(CO[C@H](C)Cn1cnc2c(N)ncnc21)NC(C)(C)C(=O)OC1CCC1 (single isomer, unassigned) [Example 16B]",0.00475 µM,0.0171 µM,,,
